Laboratory results taken from the supplement of paper PMC11451515.

What was measured:
Settings in all cases: 48 h
NOMO1 [1] = experiment: cell viability relative to DMSO control; higher = less cytotoxic
Method in brief: (§1)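 Viability was expressed as a per-plate percentage of DMSO wells, with cell-free wells as background. Leukemia cells (NOMO1 or SEM at 500 cells/well, P12-Ichikawa at 1000 cells/well) were adapted for at least four passages in each medium and seeded in 1536-well plates (5 μl). Library compounds in DMSO were pin-dosed over an 11-point threefold series from 47 μM to 0.79 nM, and CellTiter-Glo One luminescence was read after 48 h at 37°C.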

P12-Ichikawa [2] = experiment: as above
Method in brief: as §1

SEM cells [3] = experiment: as above
Method in brief: as §1

NOMO1 [4] = experiment: AUC of viability dose-response curve (% viability x log10 dose units); higher = less sensitive
Method in brief: (§2)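 Library compounds in DMSO were applied for 48 h at 37°C at 11 threefold doses (47 μM to 0.79 nM) to medium-adapted leukemia cells in 1536-well plates holding 500 or 1000 cells/well. Luminescence from CellTiter-Glo One was normalised plate by plate against DMSO and cell-free wells. Area under the curve came from trapezoidal integration of a log-logistic fit, after scaling curves that rose above full viability and discarding those that failed quality control. The fit had four parameters and used log10 doses.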

P12-Ichikawa [5] = experiment: as above
Method in brief: as §2

SEM cells [6] = experiment: as above
Method in brief: as §2

O=C(O)CCNc1cc(N2CCc3ccccc3CC2)nc(-c2ccccn2)n1
cell viability [%]
Settings | NOMO1 [1] | P12-Ichikawa [2] | SEM cells [3]
HPLM + 10% dialyzed FBS, 0.000781 µM | 111 | 119 | 123
HPLM + 10% dialyzed FBS, 0.00234 µM | 133 | 116 | 120
HPLM + 10% dialyzed FBS, 0.00702 µM | 115 | 115 | 130
HPLM + 10% dialyzed FBS, 0.0211 µM | 138 | 127 | 127
HPLM + 10% dialyzed FBS, 0.0632 µM | 140 | 114 | 139
HPLM + 10% dialyzed FBS, 0.19 µM | 123 | 111 | 144
HPLM + 10% dialyzed FBS, 0.569 µM | 111 | 117 | 129
HPLM + 10% dialyzed FBS, 1.71 µM | 116 | 112 | 133
HPLM + 10% dialyzed FBS, 5.12 µM | 117 | 114 | 121
HPLM + 10% dialyzed FBS, 15.4 µM | 94.5 | 102 | 129
HPLM + 10% dialyzed FBS, 46.1 µM | 75.9 | 88.5 | 139
RPMI 5 mM glucose + 10% FBS, 0.000781 µM | 121 | 122 | 105
RPMI 5 mM glucose + 10% FBS, 0.00234 µM | 105 | 119 | 124
RPMI 5 mM glucose + 10% FBS, 0.00702 µM | 107 | 113 | 123
RPMI 5 mM glucose + 10% FBS, 0.0211 µM | 111 | 110 | 118
RPMI 5 mM glucose + 10% FBS, 0.0632 µM | 104 | 114 | 121
RPMI 5 mM glucose + 10% FBS, 0.19 µM | 128 | 123 | 103
RPMI 5 mM glucose + 10% FBS, 0.569 µM | 115 | 123 | 103
RPMI 5 mM glucose + 10% FBS, 1.71 µM | 106 | 128 | 95.9
RPMI 5 mM glucose + 10% FBS, 5.12 µM | 116 | 104 | 99.2
RPMI 5 mM glucose + 10% FBS, 15.4 µM | 105 | 97.8 | 115
RPMI 5 mM glucose + 10% FBS, 46.1 µM | 92.9 | 69.2 | 76.9
RPMI 5 mM glucose + 10% dialyzed FBS, 0.000781 µM | 121 | 116 | 112
RPMI 5 mM glucose + 10% dialyzed FBS, 0.00234 µM | 123 | 130 | 116
RPMI 5 mM glucose + 10% dialyzed FBS, 0.00702 µM | 124 | 123 | 127
RPMI 5 mM glucose + 10% dialyzed FBS, 0.0211 µM | 128 | 126 | 110
RPMI 5 mM glucose + 10% dialyzed FBS, 0.0632 µM | 127 | 123 | 116
RPMI 5 mM glucose + 10% dialyzed FBS, 0.19 µM | 121 | 109 | 120
RPMI 5 mM glucose + 10% dialyzed FBS, 0.569 µM | 136 | 115 | 130
RPMI 5 mM glucose + 10% dialyzed FBS, 1.71 µM | 111 | 121 | 112
RPMI 5 mM glucose + 10% dialyzed FBS, 5.12 µM | 117 | 114 | 101
RPMI 5 mM glucose + 10% dialyzed FBS, 15.4 µM | 97.3 | 102 | 120
RPMI 5 mM glucose + 10% dialyzed FBS, 46.1 µM | 96.1 | 79.6 | 99.6

AUC of viability dose-response curve
Settings | NOMO1 [4] | P12-Ichikawa [5] | SEM cells [6]
HPLM + 10% dialyzed FBS | 448 | 463 | 463
RPMI 5 mM glucose + 10% FBS | 456 | 454 | 434
RPMI 5 mM glucose + 10% dialyzed FBS | 452 | 459 | 463
